Experimental findings from PubChem BioAssay (NCI) are described below.

Each structure is given as a SMILES string.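 96-well plates; 48 h exposure; 5 concentrations. Endpoints by linear interpolation between flanking doses. Not reached: highest tested concentration assigned. Abbreviation: GI50, concentration required for 50% inhibition of growth. TGI: total growth inhibition.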

Test systems include OVCAR-4 ovarian; BT-549 breast; COLO 205 colon; MCF7 breast; DU-145 prostate; PC-3 prostate; HCT-15 colon; SF-295 CNS; CAKI-1 renal; HCC-2998 colon.
Holding throughout (assay): NCI tumour cell line growth inhibition, 48 h

Regarding `COc1ccc2[nH]c3c(c2c1)CC(=O)N1CCC[C@H](C1)CC31OCCCO1`, the TGI with OVCAR-4 ovarian, in the test with BT-549 breast, in the test with COLO 205 colon, in the test on MCF7 breast, with DU-145 prostate and with PC-3 prostate was more than 100 µM in each case. The TGI with HCT-15 colon, with SF-295 CNS, in the test on CAKI-1 renal and in the test with HCC-2998 colon was more than 100 µM each time.
With `Cc1cc(O)c2c(c1)C(C1c3cccc(O)c3C(=O)c3c(O)cc(C)cc31)c1cccc(O)c1C2=O` (stereo not given), the TGI in the test with OVCAR-4 ovarian amounted to 5.1 µM; with BT-549 breast it was 0.94 µM; in the test on COLO 205 colon it was 0.378 µM; with MCF7 breast it was 1.18 µM; in the test on DU-145 prostate, 18.6 µM; in the test on PC-3 prostate it was 2.81 µM. The TGI with HCT-15 colon is 12.3 µM; with SF-295 CNS it was 4.31 µM; with CAKI-1 renal, 7.06 µM; in the test on HCC-2998 colon it was 16.6 µM.
Turning to `C=C1CCOC2(C(O)C(C)(O)CO)NC(=O)C1(O)NC2=O` (stereo not given), the TGI with OVCAR-4 ovarian, with BT-549 breast, with COLO 205 colon, in the test with MCF7 breast, in the test on DU-145 prostate and in the test with PC-3 prostate was more than 100 µM in each case. Moreover, the TGI in the test with HCT-15 colon, in the test with SF-295 CNS, with CAKI-1 renal and with HCC-2998 colon was more than 100 µM each time.
For the compound `COc1cc(/C=C/C(=N\NC(N)=S)c2sc(NNC(C)=O)nc2C)ccc1O`, the TGI with OVCAR-4 ovarian, in the test with BT-549 breast, in the test on COLO 205 colon, in the test with MCF7 breast, in the test with DU-145 prostate and in the test on PC-3 prostate was more than 100 µM each time. Besides, the TGI in the test on HCT-15 colon, with SF-295 CNS, in the test on CAKI-1 renal and in the test with HCC-2998 colon was more than 100 µM each time.
For the compound `Fc1ccc(C(OCCN2CCC3CCC(C2)N3C/C=C/c2cccs2)c2ccc(F)cc2)cc1` (stereo not given), the TGI in the test with OVCAR-4 ovarian was found to be 22.5 µM; with BT-549 breast, 25.9 µM; with COLO 205 colon it was 12.2 µM; in the test with MCF7 breast, 21.5 µM; with DU-145 prostate, 26 µM; in the test with PC-3 prostate, 18.7 µM. Besides, the TGI with HCT-15 colon was 16.6 µM; with SF-295 CNS, 22.4 µM; in the test with CAKI-1 renal, 23.1 µM; with HCC-2998 colon, 12.9 µM.
Consider `COc1cc2c[n+](C)c3c4cc(OC)c(OCc5ccccc5)cc4c(OCc4ccccc4)cc3c2cc1OC`, for which the TGI with OVCAR-4 ovarian is more than 55 µM; with BT-549 breast, 9.05 µM; in the test on COLO 205 colon, 2.97 µM; with MCF7 breast, 21.9 µM; in the test on DU-145 prostate, 45.7 µM; in the test on PC-3 prostate, 11.1 µM. The TGI in the test with HCT-15 colon was more than 100 µM; with SF-295 CNS it was more than 69.3 µM; in the test on CAKI-1 renal it was more than 77.3 µM; with HCC-2998 colon, 32.4 µM.
In the case of `NC1=Nc2ccccc2Sc2cccc(F)c21`, the TGI in the test on OVCAR-4 ovarian, in the test on BT-549 breast, with COLO 205 colon, with MCF7 breast, in the test with DU-145 prostate and with PC-3 prostate was more than 100 µM throughout. Also, the TGI in the test with HCT-15 colon, with SF-295 CNS, in the test on CAKI-1 renal and in the test on HCC-2998 colon was more than 100 µM throughout.
Consider `Cc1nc2ccc(NC3OCC(O)C(O)C3O)cc2c(=O)n1-c1ccccc1` (stereo not given), for which the TGI with OVCAR-4 ovarian, with BT-549 breast, in the test on COLO 205 colon, with MCF7 breast, in the test with DU-145 prostate and in the test on PC-3 prostate was more than 100 µM throughout. Further, the TGI in the test with HCT-15 colon, in the test with SF-295 CNS, in the test on CAKI-1 renal and with HCC-2998 colon was more than 100 µM throughout.
Take `CN(C)S(=O)(=O)c1nc(Cl)c2[nH]cnc2n1`: the TGI in the test with OVCAR-4 ovarian, in the test on BT-549 breast, in the test on COLO 205 colon, in the test with MCF7 breast, in the test on DU-145 prostate and in the test on PC-3 prostate was more than 100 µM each time. Besides, the TGI in the test with HCT-15 colon, in the test on SF-295 CNS, with CAKI-1 renal and with HCC-2998 colon was more than 100 µM throughout.
For the compound `COc1ccc(-c2oc3cc(O)c(OC)c(O)c3c(=O)c2O)cc1`, the TGI was more than 100 µM in the test on OVCAR-4 ovarian; 72.8 µM in the test on BT-549 breast; more than 80.6 µM in the test on COLO 205 colon; 63.7 µM in the test with MCF7 breast; more than 24.9 µM in the test with DU-145 prostate; more than 100 µM in the test with PC-3 prostate. The TGI is 52.2 µM with HCT-15 colon, 53.6 µM in the test with SF-295 CNS, 65.3 µM with CAKI-1 renal and more than 60.2 µM with HCC-2998 colon.
In the case of `COc1ccc([I+]c2ccc(OC)cc2)cc1`, the GI50 with OVCAR-4 ovarian was 3.33 µM; in the test with BT-549 breast, 11.1 µM; in the test on COLO 205 colon it was 9.34 µM; in the test on MCF7 breast it was 7.26 µM; in the test with DU-145 prostate, 60.4 µM; in the test with PC-3 prostate, 15.7 µM. In addition, the GI50 is more than 100 µM in the test with HCT-15 colon, 5.07 µM in the test on SF-295 CNS, more than 85.3 µM with CAKI-1 renal and 16 µM with HCC-2998 colon. For the same compound, the TGI in the test with OVCAR-4 ovarian, in the test on BT-549 breast, in the test on COLO 205 colon, in the test on MCF7 breast, in the test on DU-145 prostate and with PC-3 prostate was more than 100 µM in each case. Besides, the TGI in the test on HCT-15 colon, with SF-295 CNS, in the test on CAKI-1 renal and in the test with HCC-2998 colon was more than 100 µM in each case.
Regarding `COc1ccc(-c2nnc3n(C)c4ccccc4n3c2=O)cc1`, the TGI with OVCAR-4 ovarian, with BT-549 breast, in the test on COLO 205 colon, in the test on MCF7 breast, in the test on DU-145 prostate and with PC-3 prostate was more than 100 µM each time. Besides, the TGI in the test on HCT-15 colon is more than 100 µM; with SF-295 CNS it was 84.3 µM; in the test with CAKI-1 renal it was more than 100 µM; with HCC-2998 colon, more than 100 µM.
For the compound `COc1cc(S(=O)(=O)Nc2ccc(-c3csc(N4C(=O)CSC4c4ccccc4O)n3)cc2)ccc1Cl` (stereo not given), the TGI was more than 100 µM with OVCAR-4 ovarian; more than 100 µM in the test with BT-549 breast; 61.1 µM with COLO 205 colon; more than 100 µM in the test on MCF7 breast; more than 100 µM in the test on DU-145 prostate; more than 100 µM in the test on PC-3 prostate. Further, the TGI in the test on HCT-15 colon is more than 100 µM; in the test with SF-295 CNS, more than 100 µM; in the test with CAKI-1 renal it was more than 100 µM; with HCC-2998 colon, 41.4 µM.
